{
  "source": "patent US10994016B2",
  "about": "“Graphene oxide mediated cellular delivery of gadolinium-labeled molecules” (Northwestern University, priority 2015, dated 2021)",
  "tested_on": "HeLa cells",
  "experiment": "Cellular delivery studies with and without GO co-incubation, HeLa",
  "assay_type": "cell-based",
  "method": "ICP-MS Samples were prepared in 15-mL conical tubes by adding ACS reagent grade nitric acid (70%), followed by incubation at 70° C. overnight to allow for complete sample digestion. The effectiveness of this digestion protocol was previously validated for GO. After incubation, a multi-element internal standard (containing Bi, Ho, In, Li, Sc, Tb, and Y, Inorganic Ventures, Christiansburg, Va.) and milli-Q water (18.2 MΩ·cm) were added to produce a final sample of 3% (v/v) nitric acid and 5 ng/mL internal standard.\nICP-MS was performed on a computer-controlled (Plasmalab software) Thermo X series II ICP-MS (Thermo Fisher Scientific, Waltham, Mass., USA) operating in standard mode equipped with an ESI SC-2 autosampler (Omaha, Nebr., USA). Each sample was acquired using 1 survey run (10 sweeps) and 3 main (peak jumping) runs (100 sweeps). The isotopes selected for analysis were Gd with In and Ho isotopes selected as internal standards for data interpolation. Instrument performance is optimized daily through an autotune followed by verification via a performance report (passing manufacturer specifications). Instrument calibration was accomplished by preparing individual-element Gd standards (Inorganic Ventures, Christiansburg, Va., USA) using concentrations of 0.78125, 1.5625, 3.125, 6.25, 12.50, 25.00, 50.00, 100.0, and 200.0 ng/mL containing 3.0% nitric acid (v/v) and 5.0 ng/mL of multi-element internal standard.\nDulbecco's modified phosphate buffered saline (DPBS), media, and dissociation reagents were purchased from Life Technologies (Carlsbad, Calif.). CorningBrand® cell culture consumables (flasks, plates, etc.) and sera were purchased from VWR Scientific (Radnor, Pa.). HeLa cells (ATCC® CCL-2™) and KB cells (ATCC® CCL-17™) were purchased from the American Type Culture Collection (ATCC, Manassas, Va.) and cultured in phenol red-free minimum essential media (MEM) supplemented with 10% fetal bovine serum (FBS). Prior to all experiments, cells were plated and allowed to incubate for 24 hours before dosing. Cells were harvested with 0.25% TrypLE for 5 minutes at 37° C. in a 5.0% CO2 incubator. For sterilization, all Gd(III)-labeled molecules were filtered with 0.2 μm sterile filters prior to concentration determination and storage at 4° C. GO was used as prepared without further sterilization. […] Cells were grown in a humidified incubator operating at 37° C. and 5.0% CO2.\nCell counting was conducted using a Guava EasyCyte Mini Personal Cell Analyzer (EMD Millipore, Billerica, Mass.). After cell harvesting, an aliquot (50 μL) of the cell suspensions was mixed with Guava ViaCount reagent (150 μL) and allowed to stain at room temperature for at least 5 minutes. The dilution factor of 4 was determined based upon optimum machine performance (20-150 cells/μL). After vortexing for 10 sec, stained cells were counted using a Guava EasyCyte Mini Personal Cell Analyzer (PCA) using the ViaCount software module. For each sample, 1000 events were acquired. Gating of live/dead and cell/debris classifications were performed manually by the operator.\nCellular delivery studies were performed with HeLa and KB cells. HeLa and KB were plated at a cell density of approximately 25,000 and 50,000 cells per well, respectively, in a 24-well plate as counted by a hemocytometer. Stock solutions of 1-14 (1 mM), 150 nm GO (100 μg/mL), and 1500 nm GO (100 μg/mL) were prepared using sterile Milli-Q water. Prior to dosing, 80 μL ([…]) of each GO (150 nm and 1500 nm) and 80 μL (80 nmol) of each Gd(III)-labeled molecule (1-14) were mixed and allowed to adsorb for at least 15 minutes. 150 μL Gd(III)-GO solutions were added to 250 μL media to give a final concentration of 188 μM Gd and 18.8 μg/mL GO. Cells were incubated with the mixture of Gd(III)-labeled molecules and GO for […]. To harvest, cells were rinsed in-plate three times with 500 μL PBS and trypsinized using 100 μL 0.25% TrypLE. […]",
  "data": [
    {"substance": "Diethylenetriaminepentaacetic acid gadolinium(III) dihydrogen salt hydrate [Molecule 11]", "values": [
      {"measurement": "Enhancement by GO", "setting": "35 mM Magnevist, 20 μg/mL GO, 24-well plates", "value": 3.3, "unit": "×"},
      {"measurement": "Enhancement by GO", "setting": "6-well plates", "value": 3.1, "unit": "×"},
      {"measurement": "Delivery enhancement without adsorption time", "setting": "150 nm GO, mixture added directly to media", "value": "abolished"},
      {"measurement": "Delivery enhancement without adsorption time", "setting": "1500 nm GO, 188 μM Gd(III), 18.8 μg/mL GO", "value": "same result"},
      {"measurement": "Magnevist uptake", "setting": "with GO, 35 mM Magnevist, 20 μg/mL GO (150 nm), 17 trials", "value": "515±319", "unit": "fmol Gd/cell"},
      {"measurement": "Typical cellular Gd(III) content", "setting": "with GO, 35 mM Magnevist, 20 μg/mL GO, 24-well plates, N=11", "value": "299±67", "unit": "fmol/cell"},
      {"measurement": "Loading (cellular Gd(III) content)", "setting": "with GO, 6-well plates, N=13", "value": "151±56", "unit": "fmol/cell"},
      {"measurement": "Magnevist uptake", "setting": "without GO, 35 mM Magnevist, 10 trials", "value": "115±32", "unit": "fmol Gd/cell"},
      {"measurement": "Typical cellular Gd(III) content", "setting": "without GO, 35 mM Magnevist, 24-well plates, N=4", "value": "91±9", "unit": "fmol/cell"},
      {"measurement": "Loading (cellular Gd(III) content)", "setting": "without GO, 6-well plates, N=4", "value": "49±19", "unit": "fmol/cell"}
    ]}
  ]
}
